Results: patent publication US20020183256A1, “Cytostatic-integrin conjugates having specifically cleavable linking units” (priority 2000, published 2002)
pIC50: −log10 of the molar value. Values after ≈ are worked out from the molar mass of the structure shown. Read-outs that look alike come from different tables or passages of the source. *1 amine or outer side, *2 acyl side, *3 side chain or, on linkers, in order; H or OH if unused. Where a SMILES comes first, the peptide text is derived from it. [ ]: non-standard residue; d: D form. The star is where a group is joined. Camptothecin(20R,20-O) = CC[C@]1(O*)C(=O)OCc2c1cc1n(c2=O)Cc2cc3ccccc3nc2-1; X1 = CCCNC(=O)Nc1cccc(S(=O)(=O)Nc2cccc(C(CC(=O)O)N*)c2)c1; NH(1,4-C6H4)NHCS = S=C(Nc1ccc(N[*:1])cc1)[*:2]; CO = O=C([*:1])[*:2]; GABA = NCCCC(=O)O

What was measured:
B16F10 = assay: Growth inhibition test (MTT), cytotoxic action on tumour cell lines; format: cell-based, mouse
Outline: (§1)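 Cells seeded at 50,000/ml (B16F10 20,000/ml) in RPMI + 10% FCS, grown 1 day at 37 °C, then compound added in DMSO. Growth read on day 6 by MTT (5 h, 37 °C), isopropanol solubilisation, extinction at 595 nm; IC50 reported per line.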

HT29 = assay: as above; format: cell-based, human
Outline: as §1

SW 480 = assay: as above; format: cell-based, human
Outline: as §1

[1] = In-vivo inhibition of tumour growth using a nude mouse model; design: species or system athymic nude mice (NMRI nu/nu strain); details: NMRI nu/nu, mouse, in vivo; intravenously or intraperitoneally day 1-3 and day 15-17; nude mice; read-out: MTD (dose marked MTD)
Excerpt: (§2) In all in-vivo experiments for investigating the inhibition of tumour growth, athymic nude mice (NMRI nu/nu strain) were used. The tumour was developed by serial passage in nude mice. The human origin of the tumour was confirmed by isoenzymatic and immunohistochemical methods.
(§3) The tumour was implanted subcutaneously in both flanks of nu/nu nude mice 6 to 8 weeks old. The treatment was started, depending on the doubling time, as soon as the tumours had reached a diameter of 5-7 mm. The mice were assigned to the treatment group or the control group (5 mice per group having 8-10 assessable tumours) by randomization. The individual tumours of the control group all grew progressively.
(§4) The size of the tumours was measured in two dimensions by means of a slide gauge. The tumour volume, which correlated well with the cell count, was then used for all assessments. The volume was calculated according to the formula “length×breadth×breadth/2” ([a×b^2]/2, a and b represent two diameters arranged at right angles).
(§5) The values of the relative tumour volume (RTV) were calculated for each individual tumour by dividing the tumour size on day X with the tumour size on day 0 (at the time of randomization). The average values of the RTV were then used for the further assessment.
(§6) The inhibition of the increase of the tumour volume (tumour volume of the test group/control group, T/C, in per cent) was the final measured value.
(§7) The compounds can be administered with a daily or an intermittent therapy schedule through a couple of days either by intraperitoneal, intravenious, oral or subcutaneous route.
(§8) The compounds are dissolved in PEG400/water 2:1 and administered intravenously or intraperitoneally from day 1-3 and day 15-17.

[2] = system: melanoma xenograft model (MEXF 989); assay: as above; design: species or system athymic nude mice (NMRI nu/nu strain); details: for optimal T/C in % / lethality: intravenously or intraperitoneally day 1-3 and day 15-17; for optimal T/C in %: MEXF 989; for lethality: MEXF 989 nude mice; for inhibition of the tumor growth (in words): subcutaneously growing melanoma xenograft MEXF 989
Excerpt: as §2, §3, §4, §5, §6, §7, §8

MMP-2 = target: T1, MMP-2 (Homo sapiens, UniProt P08253); assay: Cleavage of conjugates by MMP-2 in buffer (HPLC); format: biochemical; details: after 6 h incubation with MMP-2; buffer pH 7.5
T1 construct: purchased Calbiochem
T1 sequence (P08253 110-660): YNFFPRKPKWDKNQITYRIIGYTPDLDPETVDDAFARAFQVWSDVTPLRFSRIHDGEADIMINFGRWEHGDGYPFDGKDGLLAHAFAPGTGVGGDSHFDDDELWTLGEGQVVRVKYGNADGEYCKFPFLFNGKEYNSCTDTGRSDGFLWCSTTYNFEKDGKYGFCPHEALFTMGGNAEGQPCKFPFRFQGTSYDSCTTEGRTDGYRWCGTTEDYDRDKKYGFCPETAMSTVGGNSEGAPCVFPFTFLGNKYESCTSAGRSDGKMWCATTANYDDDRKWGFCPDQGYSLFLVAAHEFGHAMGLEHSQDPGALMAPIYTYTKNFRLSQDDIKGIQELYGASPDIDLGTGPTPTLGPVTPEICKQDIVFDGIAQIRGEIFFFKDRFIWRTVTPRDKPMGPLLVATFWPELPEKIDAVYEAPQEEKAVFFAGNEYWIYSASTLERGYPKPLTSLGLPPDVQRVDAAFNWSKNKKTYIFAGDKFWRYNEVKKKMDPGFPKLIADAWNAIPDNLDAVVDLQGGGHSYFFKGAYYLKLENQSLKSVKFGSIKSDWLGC
Description: 2.5 μl MMP-2 (Calbiochem) with a specific activity of 60 μU/μl are incubated with 10 nM of the conjugates exemplified in the example series 1-25 in 1 ml of a medium consisting of 50 mM Tris-HCl pH 7.5, 0.2 M NaCl, 10 mM CaCL2*2H2O and 0.05% Brij 35. The enzyme mediated cleavage of the conjugates is detected by HPLC analysis using an RP18 (5 μM) column with 70% HClO4/water (0.4% v/v) as eluent A and acentonitrile as eluent B (UV detection at […]). The efficiency of the cleavage is assessed by comparing the peak areas of the intact conjugate (starting material) and the cleavage product (tripeptide conjugate of camptothecin) after 6 h and 24 h incubation (cf. Table 5).

αvβ3 receptor = target: T2, αvβ3 receptor (Homo sapiens, UniProt P05106+P06756); assay: αvβ3 binding test (echistatin displacement, WGA SPA beads); details: αvβ3 from human A375 cells; for pIC50: read-out: IC50 values of the binding to the αvβ3 receptor
T2 construct: αvβ3 from human A375 cells was purified; endogenous in cells; host or cells: human A375 cells (receptor purified from the cells, analogous to Wong et al. 1996)
T2 sequence (P06756 31-889 limits assumed): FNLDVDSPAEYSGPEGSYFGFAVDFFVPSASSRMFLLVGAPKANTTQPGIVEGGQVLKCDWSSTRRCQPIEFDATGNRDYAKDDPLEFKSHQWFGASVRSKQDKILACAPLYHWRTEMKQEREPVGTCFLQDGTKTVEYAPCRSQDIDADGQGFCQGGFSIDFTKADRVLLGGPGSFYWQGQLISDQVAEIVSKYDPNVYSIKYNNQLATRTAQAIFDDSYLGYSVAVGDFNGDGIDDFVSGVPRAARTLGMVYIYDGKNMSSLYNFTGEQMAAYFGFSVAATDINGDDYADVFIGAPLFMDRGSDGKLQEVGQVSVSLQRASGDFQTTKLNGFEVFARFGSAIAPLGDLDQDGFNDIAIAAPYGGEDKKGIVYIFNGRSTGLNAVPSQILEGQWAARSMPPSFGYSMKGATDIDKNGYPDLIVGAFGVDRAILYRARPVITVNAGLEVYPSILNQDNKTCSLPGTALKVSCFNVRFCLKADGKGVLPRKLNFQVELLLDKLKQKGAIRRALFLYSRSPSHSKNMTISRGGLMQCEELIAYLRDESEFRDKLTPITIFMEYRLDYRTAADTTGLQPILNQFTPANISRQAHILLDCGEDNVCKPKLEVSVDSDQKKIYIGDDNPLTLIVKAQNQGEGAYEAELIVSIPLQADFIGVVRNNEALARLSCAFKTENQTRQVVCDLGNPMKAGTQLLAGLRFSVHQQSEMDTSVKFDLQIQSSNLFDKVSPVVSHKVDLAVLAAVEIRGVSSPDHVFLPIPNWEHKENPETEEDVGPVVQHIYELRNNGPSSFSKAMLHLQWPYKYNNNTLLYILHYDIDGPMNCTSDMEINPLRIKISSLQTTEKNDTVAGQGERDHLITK
T2 sequence (P06756 891-1048 partner limits assumed): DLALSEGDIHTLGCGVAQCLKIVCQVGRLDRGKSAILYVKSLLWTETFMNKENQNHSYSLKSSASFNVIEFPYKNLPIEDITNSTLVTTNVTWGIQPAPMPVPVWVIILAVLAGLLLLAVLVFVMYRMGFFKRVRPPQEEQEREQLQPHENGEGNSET
T2 sequence (P05106 27-788): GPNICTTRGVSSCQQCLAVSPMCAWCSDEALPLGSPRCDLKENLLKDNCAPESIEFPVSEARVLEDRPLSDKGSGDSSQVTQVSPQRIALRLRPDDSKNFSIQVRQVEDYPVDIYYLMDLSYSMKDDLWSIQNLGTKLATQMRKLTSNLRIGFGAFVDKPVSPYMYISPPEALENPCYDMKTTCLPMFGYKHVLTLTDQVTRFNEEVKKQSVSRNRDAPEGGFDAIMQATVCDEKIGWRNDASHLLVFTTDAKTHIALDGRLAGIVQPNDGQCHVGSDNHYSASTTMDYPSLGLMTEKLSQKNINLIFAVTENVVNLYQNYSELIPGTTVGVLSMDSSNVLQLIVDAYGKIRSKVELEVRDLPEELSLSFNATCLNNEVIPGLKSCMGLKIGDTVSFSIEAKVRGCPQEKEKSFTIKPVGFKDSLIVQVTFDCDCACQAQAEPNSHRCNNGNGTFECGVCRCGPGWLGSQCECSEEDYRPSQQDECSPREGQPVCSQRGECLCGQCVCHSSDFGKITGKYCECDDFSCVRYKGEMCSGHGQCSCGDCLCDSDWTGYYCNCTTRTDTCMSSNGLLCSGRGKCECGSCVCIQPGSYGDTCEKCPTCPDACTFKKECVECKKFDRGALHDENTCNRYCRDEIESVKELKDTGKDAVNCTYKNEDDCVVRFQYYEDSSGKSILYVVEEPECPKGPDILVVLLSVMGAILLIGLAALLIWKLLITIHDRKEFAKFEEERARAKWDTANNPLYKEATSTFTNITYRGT

hemopoietic stem cells = assay: CSF-induced proliferation of hemopoietic stem cells (colony formation); format: cell-based, mice; details: murine bone marrow cells, GM-CSF, 7 days
Description: Bone marrow cells are flushed out of the femur of mice. 10^5 cells are incubated in McCoy 5A medium (0.3% agar) together with recombinant murine GM-CSF (Genzyme; parent cell colony formation) and the substances (10^−4 to 100 μg/ml) at 37° C. and 7% CO2. 7 days later, the colonies […] and clusters (17-50 cells) are counted.

`CCCNC(=O)Nc1cccc(S(=O)(=O)Nc2cccc(C(CC(=O)O)NC(=O)Nc3ccc(NC(=S)N4CCC[C@@H]4C(=O)N[C@@H](CC(C)C)C(=O)NCC(=O)N[C@H](CC(C)C)C(=O)N[C@H](Cc4c[nH]cn4)C(=O)N[C@@H](C(=O)O[C@@]4(CC)C(=O)OCc5c4cc4n(c5=O)Cc5cc6ccccc6nc5-4)C(C)C)cc3)c2)c1` (single isomer, unassigned) [Example 2] gave a pIC50 (B16F10; mouse, 6 days) of 6.30, a pIC50 (HT29; human, 6 days) of 6.74 and a pIC50 (SW 480; human, 6 days) of 7.00. For the same compound, the MTD [1] was 12 mg/kg/day, the “optimal T/C in %” value ([2]; 6 mg/kg/day) was 17.7% and the lethality ([2]; 6 mg/kg/day) was 0/5. For the same compound, the “optimal T/C in %” value ([2]; 12 mg/kg/day) was 7.4%, the lethality ([2]; 12 mg/kg/day) was 1/5 (MTD) and the “inhibition of the tumor growth (in words)” value (from here on “inhibition … (in words)”) [2] was “effected inhibitions of the tumor growth”. The “MMP-2 mediated cleavage Peak area product/educt x100” value (MMP-2) was 18 and the pIC50 (αvβ3 receptor) was 7.60.

With `CCCNC(=O)Nc1cccc(S(=O)(=O)Nc2cccc(C(CC(=O)O)NC(=O)Nc3ccc(NC(=S)N4CCC[C@@H]4C(=O)N[C@@H](CC(C)C)C(=O)NCC(=O)N[C@H](CC(C)C)C(=O)N[C@H](CC(N)=O)C(=O)N[C@@H](C(=O)O[C@@]4(CC)C(=O)OCc5c4cc4n(c5=O)Cc5cc6ccccc6nc5-4)C(C)C)cc3)c2)c1` (single isomer, unassigned) [Example 10] the pIC50 (B16F10; mouse, 6 days) was 6.22, the pIC50 (HT29; human, 6 days) was 7.00 and the pIC50 (SW 480; human, 6 days) was 7.15. The MTD [1] was 6 mg/kg/day, the “optimal T/C in %” value ([2]; 6 mg/kg/day) was 11.4% and the lethality ([2]; 6 mg/kg/day) was 0/5 (MTD). The “inhibition … (in words)” value [2] was “effected inhibitions of the tumor growth”, the “MMP-2 mediated cleavage Peak area product/educt x100” value (MMP-2) was 16 and the pIC50 (αvβ3 receptor) was 7.70.

Work on `CCCNC(=O)Nc1cccc(S(=O)(=O)Nc2cccc(C(CC(=O)O)NC(=O)Nc3ccc(NC(=S)N4CCC[C@@H]4C(=O)N[C@@H](CC(C)C)C(=O)NCC(=O)N[C@H](CSC)C(=O)N[C@H](Cc4c[nH]cn4)C(=O)N[C@@H](C(=O)O[C@@]4(CC)C(=O)OCc5c4cc4n(c5=O)Cc5cc6ccccc6nc5-4)C(C)C)cc3)c2)c1` (single isomer, unassigned) [Example 25] yielded a pIC50 (B16F10; mouse, 6 days) of 6.60, a pIC50 (HT29; human, 6 days) of 7.10 and a pIC50 (SW 480; human, 6 days) of 7.22. The MTD [1] was 6 mg/kg/day, the “optimal T/C in %” value ([2]; 6 mg/kg/day) was 19.6% and the lethality ([2]; 6 mg/kg/day) was 1/5 (MTD). For the same compound, the “inhibition … (in words)” value [2] was “effected inhibitions of the tumor growth” and the “MMP-2 mediated cleavage Peak area product/educt x100” value (MMP-2) was 9.

Compound `CC[C@@]1(O)C(=O)OCc2c1cc1n(c2=O)Cc2cc3ccccc3nc2-1` [Camptothecin, 20(S)-Camptothecin, reference compound] has an IC50 (hemopoietic stem cells; Mus musculus, Bone marrow cell, 168 h, read-out: IC50 values of the inhibition of colony formation of hemopoietic stem cells) of 0.25 ng/mL (≈ 0.718 nM).

For `CCCNC(=O)Nc1cccc(S(=O)(=O)Nc2cccc(C(CC(=O)O)NC(=O)Nc3ccc(NC(=S)N4CCC[C@@H]4C(=O)N[C@@H](CC(C)C)C(=O)NCC(=O)N[C@H](CC(C)C)C(=O)N[C@H](Cc4c[nH]cn4)C(=O)N[C@@H](C(=O)O[C@@]4(CC)C(=O)OCc5c4cc4n(c5=O)Cc5cc6ccccc6nc5-4)C(C)C)cc3)c2)c1` (stereo partly shown) [Example 1], the pIC50 (B16F10; mouse, 6 days) was 6.60, the pIC50 (HT29; human, 6 days) was 7.30 and the pIC50 (SW 480; human, 6 days) was 7.15. For the same compound, the “IC50 values of the inhibition of colony formation of hemopoietic stem cells” value (hemopoietic stem cells) was 30 ng/mL, the “MMP-2 mediated cleavage Peak area product/educt x100” value (MMP-2) was 17 and the pIC50 (αvβ3 receptor) was 7.40.

Compound `CCCNC(=O)Nc1cccc(S(=O)(=O)Nc2cccc(C(CC(=O)O)NC(=O)Nc3ccc(NC(=S)NCCCC(=O)N4CCC[C@@H]4C(=O)N[C@@H](CC(C)C)C(=O)NCC(=O)N[C@H](CC(C)C)C(=O)N[C@H](Cc4c[nH]cn4)C(=O)N[C@@H](C(=O)O[C@@]4(CC)C(=O)OCc5c4cc4n(c5=O)Cc5cc6ccccc6nc5-4)C(C)C)cc3)c2)c1` (stereo partly drawn) [Example 16] ({X1-CO}-[NH(1,4-C6H4)NHCS][GABA][dP]LG[dL][dH][dV]-{Camptothecin(20R,20-O)}) has a pIC50 (B16F10; B16F10, MTT after day 6, read-out: IC50 values of the cytotoxic action on tumour cell lines, B16F10) of 7.30, a pIC50 (HT29; HT29, MTT after day 6, read-out: IC50 values of the cytotoxic action on tumour cell lines, HT29) of 7.60 and a pIC50 (SW 480; SW480, MTT after day 6, read-out: IC50 values of the cytotoxic action on tumour cell lines, SW480) of 7.40. The “IC50 values of the inhibition of colony formation of hemopoietic stem cells” value (hemopoietic stem cells) was 15 ng/mL and the “IC50 values of the binding to the αvβ3 receptor” value (αvβ3 receptor) was “nix”.
